Here are results for two compounds from US20060025401A1, “Use of inhibitors of the sodium-dependent chloride/bicarbonate exchanger for the treatment of thrombotic and inflammatory disorders” (Sanofi-Aventis Deutschland GmbH, priority 2002, published 2006).

For assay [1], the system named is human umbilical vein endothelial cells (HUVEC). Briefly: Measurement of vWF release after reperfusion (ELISA of cell supernatant). The assay is classed as cell-based. The procedure: All the examples were carried out with human umbilical vein endothelial cells (HUVEC). These comprise primary cell cultures isolated from the umbilical vein.
For the following examples, the cells were cultivated either on gelatinized glass plates (measurement of the intracellular proton concentration) or on cell culture plates (12-well culture plates, Falcon, N.J., USA; measurement of vWF release) after the first passage.
The measurements were carried out in a Heraeus Heracell incubator. This made it possible to […] the umbilical vein endothelial cells under controlled physiological conditions (temperature 37° C., relative humidity 100%, pCO2 constant at 5%) and to ensure rapid change of different cell culture media. […]
The samples taken from the supernatant were used to determine the vWF concentration. […] The vWF content of standard human plasma (Behring, Marburg) is calculated using an international standard (2nd International Standard 87/718; National Institute for Biological Standards and Control, London).
Table 4: vWF secretion was measured during a 10-minute reperfusion time with stimulation. […]
On the technique in general: An ELISA detects its analyte on a solid surface through an enzyme-linked reagent.

Assay [2] has the same test system. In words: Measurement of the intracellular pH (BCECF fluorescence) during reperfusion simulation after acidosis. The format is cell-based. The settings on record: reperfusion buffer pH 7.4 with 10 μM histamine after 60 minutes of acidosis (pHex 6.4); inhibitors each 10 μM; found from first 30 seconds after reperfusion; Mean ± SEM; control buffer 18 ± 1.5. Here is the method:
All the examples were carried out with human umbilical vein endothelial cells (HUVEC). These comprise primary cell cultures isolated from the umbilical vein. For the following examples, the cells were cultivated either on gelatinized glass plates (measurement of the intracellular proton concentration) or on cell culture plates (12-well culture plates, Falcon, N.J., USA; measurement of vWF release) after the first passage. To measure the intracellular proton concentration (pHi), the HUVECs were loaded with the pH-sensitive fluorescent dye BCECF-AM (2′,7′-bis(carboxyethyl)-5(6)-carboxyfluorescein). A Deltascan spectrofluorometer (PTI, Hamburg) was employed for the subsequent fluorescence measurement. This measuring system consists essentially of a UV light source, a monochromator, a photon detector and the Felix and Oscar software packages (PTI, Hamburg) for controlling the system via a computer. After alternate excitation with the wavelengths 439.5 nm (pH-independent) and 490 nm (pH-sensitive), the ratio of the measured emissions of the BCECF (ratio) was reported and the pH was found after a calibration. The measuring cell is designed so that the parameters of temperature and carbon dioxide partial pressure in the system are controlled during continuous perfusion. […]

On to `COCCOc1nc(-c2ccccc2)n(Cc2ccc(-c3ccccc3S(=O)(=O)NC#N)cc2S(C)(=O)=O)c1C=O` [Compound 1, 4′-[5-formyl-4-(2-methoxyethoxy)-2-phenyl-1-imidazolylmethyl]-3′-methylsulfonylbiphenyl-2-sulfonylcyanamide], for which, in assay [1] (10 μM compound, 10-minute reperfusion time with stimulation (10 μM histamine), preacidotic cells without inhibitor 193 ± 8.0%), the “vWF secretion during reperfusion of preacidotic cells, relative to control cells (vWFco = 100%)” value turned out to be 157 ± 18%. Besides, in assay [1] (blockade of the NCBE transporter, 10 μM, reperfusion of preacidotic cells), the “reduction of the increased vWF secretion during reperfusion” value was approximately 50%.

As to `CC(C)c1ccc(C(=O)NC(=N)N)cc1S(C)(=O)=O` [NHE, cariporide], the “Time to Δ PHi, max/2 (time to the half-maximum pHi change)” value in assay [2] is 190 ± 2.9 s.
